Patent US20030220307A1, “Remedial agent for osteoporosis” (priority 2000, published 2003)

What was measured:
[1] = tested on: ovariectomized (OVX) rats; assay: Test in osteoporosis rat model (femur bone mineral density and blood Ca level); assay type: in vivo; details: oral; for OVX-induced decrease in femur bone mineral density: every day for 8 weeks, vs OVX group, p<0.05, level remained as high as in the sham group; for blood calcium-increasing effect: in amounts where they suppressed the decrease in bone mineral density, 8 weeks, blood drawn 24 hours after last administration
Experimental: The compounds of the present invention were evaluated for their effects on bone mineral density and blood calcium (Ca) level in osteoporosis rat model. The following compounds were tested: 1α,3β-dihydroxy-20(S)-(3-ethyl-3-hydroxypentyl)-9,10-secopregna-5,7,10(19),16-tetraene from Example 11 (hereinafter referred to as “Compound l”) and 1α,3β-dihydroxy-20(S)-(5-ethyl-5-hydroxy-3-heptynyl)-9,10-secopregna-5,7,10(19),16-tetraene from Example 6 (hereinafter referred to as “Compound 2”).
Nine-month-old W-I female rats (Imamichi Institute for Animal Reproduction) were ovariectomized to remove both ovaries. From the following day, Compound 1 or Compound 2 was orally administered every day for 8 weeks. Compound 1 was given in an amount of 0.5 μg/kg, 1 μg/kg or 2 μg/kg per day in two divided doses, while Compound 2 was given in an amount of 0.125 μg/kg, 0.25 μg/kg or 0.5 μg/kg per day in two divided doses. Twenty-four hours after the last administration, blood was drawn from each rat under ether anesthesia. The rats were then euthanized and their femurs were isolated.
The femur bone mineral density was measured using a dual X-ray bone mineral densitometer (DCS-600EX, ALOKA). The blood calcium (Ca) level was measured with a HITACHI automatic analyzer (Model 7170, Hitachi). For comparison purposes, both groups of sham operation (sham) and ovariectomy (OVX; in which rats were ovariectomized only, not followed by administration of test compounds) were similarly assayed for their blood calcium (Ca) level and bone mineral density by isolating their femurs.
Statistical processing was carried out using a software package of Statistic Analysis System (SAS). A comparison between sham operation (sham) and ovariectomy (OVX) groups was made by an unpaired t-test, while a comparison between OVX and drug treatment groups was made by Dunnett's multiple test. A P-value less than 5% was defined as a significant difference.

[2] = tested on: ovariectomized (OVX) rats; assay type: in vivo, rat; details: 0.04 μg/kg per dose, subcutaneous, 5 times a week for 6 weeks; third lumbar vertebra
Experimental: Seven- to nine-week-old W-I female rats (Imamichi Institute for Animal Reproduction) were ovariectomized to remove both ovaries. From the following day, 1α,25-dihydroxyvitamin D3 was subcutaneously administered 5 times a week for 6 weeks in an amount of 0.01 to 0.04 μg/kg per dose. After the last administration, 24-hour urine was sampled from each rat and blood was drawn under ether anesthesia. The rats were then euthanized and their lumbar vertebrae were isolated. The lumbar bone mineral density was measured at the third lumbar vertebra site using a dual X-ray bone mineral densitometer (DCS-600, ALOKA). The blood and urinary calcium levels and the urinary creatinine level were measured with a HITACHI automatic analyzer (Model 7170, Hitachi). Statistical processing was carried out using a software package of Statistic Analysis System (SAS). A comparison between sham operation (sham) and ovariectomy (OVX) groups was made by an unpaired t-test, while a comparison between OVX and drug treatment groups or between sham and drug treatment groups was made by Dunnett's multiple test. A P-value less than 5% was defined as a significant difference.

Row | blood calcium-increasing effect [1] | SMILES | OVX-induced decrease in femur bone mineral density ([1]; 0.125 μg/kg per day in two divided doses) | OVX-induced decrease in femur bone mineral density ([1]; 0.5 μg/kg per day in two divided doses) | OVX-induced decrease in lumbar bone mineral density [2] | OVX-induced decrease in femur bone mineral density ([1]; 1 μg/kg per day in two divided doses) | OVX-induced decrease in femur bone mineral density ([1]; 2 μg/kg per day in two divided doses)
1 | not observed | C=C1/C(=C\C=C2/CCC[C@]3(C)C([C@@H](C)CCC#CC(O)(CC)CC)=CCC23)C[C@@H](O)C[C@@H]1O (stereo partly drawn) [Compound 2, 1α,3β-dihydroxy-20(S)-(5-ethyl-5-hydroxy-3-heptynyl)-9,10-secopregna-5,7,10(19),16-tetraene] | significantly suppressed | significantly suppressed | – | – | –
2 | – | C=C1/C(=C\C=C2/CCC[C@]3(C)[C@@H]([C@H](C)CCCC(C)(C)O)CC[C@@H]23)C[C@@H](O)C[C@@H]1O [1α,25-dihydroxyvitamin D3] | – | – | significantly suppressed | – | –
3 | not observed | C=C1/C(=C\C=C2/CCC[C@]3(C)C([C@@H](C)CCC(O)(CC)CC)=CCC23)C[C@@H](O)C[C@@H]1O (stereo partly drawn) [Compound 1, 1α,3β-dihydroxy-20(S)-(3-ethyl-3-hydroxypentyl)-9,10-secopregna-5,7,10(19),16-tetraene] | – | – | – | significantly suppressed | significantly suppressed
